Reference: ChEMBL document CHEMBL4513135, “CO-ADD screening of IQOG CSIS (Spain) compounds”
Converted amounts (≈) assume the structure as drawn.

Legend:
HEK293 = assay: cells; type: functional; conditions: Homo sapiens, ATCC CRL1573, HEK293; ASSAY_TEST Inhibition of Cell Viability; detection method Resazurin; Fluorescence (ex560/em590); MEDIA DMEM with 10% FBS; plate type 384well; TC; CORNING #3712; time 18 hr
Staphylococcus aureus = assay: microbe, parasite or virus in culture; conditions: ATCC 43300, 18 h, ASSAY_TEST Inhibition of Bacterial Growth, detection method Absorption (OD600), MEDIA CAMHB, plate type 384well, NBS, CORNING #3640
Description: Antibacterial activity against Staphylococcus aureus MRSA ATCC 43300 (CO-ADD:GP_020); MIC in CAMBH media, using NBS plates, by OD(600)

Escherichia coli = assay: microbe, parasite or virus in culture; conditions: ATCC 25922, 18 h, ASSAY_TEST Inhibition of Bacterial Growth, detection method Absorption (OD600), MEDIA CAMHB, plate type 384well, NBS, CORNING #3640
Description: Antibacterial activity against Escherichia coli ATCC 25922 (CO-ADD:GN_001); MIC in CAMBH media using NBS plates, by OD(600)

Klebsiella pneumoniae = assay: microbe, parasite or virus in culture; conditions: ATCC 700603, 18 h, ASSAY_TEST Inhibition of Bacterial Growth, detection method Absorption (OD600), MEDIA CAMHB, plate type 384well, NBS, CORNING #3640
Description: Antibacterial activity against Klebsiella pneumoniae MDR ATCC 70063 (CO-ADD:GN_003); MIC in CAMBH media using NBS plates, by OD(600)

Pseudomonas aeruginosa = assay: microbe, parasite or virus in culture; conditions: ATCC 27853, 18 h, ASSAY_TEST Inhibition of Bacterial Growth, detection method Absorption (OD600), MEDIA CAMHB, plate type 384well, NBS, CORNING #3640
Description: Antibacterial activity against Pseudomonas aeruginosa ATCC 27853 (CO-ADD:GN_042); MIC in CAMBH media using NBS plates, by OD(600)

Acinetobacter baumannii = assay: microbe, parasite or virus in culture; conditions: ATCC 19606, 18 h, ASSAY_TEST Inhibition of Bacterial Growth, detection method Absorption (OD600), MEDIA CAMHB, plate type 384well, NBS, CORNING #3640
Description: Antibacterial activity against Acinetobacter baumannii ATCC 19606 (CO-ADD:GN_034); MIC in CAMBH media using NBS plates, by OD600

Candida albicans = assay: microbe, parasite or virus in culture; conditions: ATCC 90028, ASSAY_TEST Inhibition of Fungal Growth, detection method Absorption (OD530), plate type 384well, NBS, CORNING #3640
Description: Antifungal activity against Candida albicans ATCC 90028 (CO-ADD:FG_001); MIC in YNB media using NBS plates, by OD630

Description for Cryptococcus neoformans: Antifungal activity against Cryptococcus neoformans H99 ATCC 208821 (CO-ADD:FG_002); MIC in YNB media using NBS plates, by Resazurin OD(600-570)

MIC (Cryptococcus neoformans) | MIC (Staphylococcus aureus) | MIC (Escherichia coli) | MIC (Klebsiella pneumoniae) | MIC (Pseudomonas aeruginosa) | MIC (Acinetobacter baumannii) | MIC (Candida albicans) | SMILES | CC50 (HEK293)
> 32 µg/mL | > 32 µg/mL | > 32 µg/mL | > 32 µg/mL | > 32 µg/mL | > 32 µg/mL | 32 µg/mL (≈ 100 µM) | CCOC(=O)C1=C(C)OC(N)=C(C#N)C1c1ccc(Cl)cc1 (stereo not given) | > 32 µg/mL
> 32 µg/mL | > 32 µg/mL | > 32 µg/mL | > 32 µg/mL | > 32 µg/mL | > 32 µg/mL | > 32 µg/mL | COc1ccc(OC)c2nc(Cl)c(C=O)cc12 | > 32 µg/mL
> 32 µg/mL | > 32 µg/mL | > 32 µg/mL | > 32 µg/mL | > 32 µg/mL | > 32 µg/mL | > 32 µg/mL | COc1nc2n[nH]c(N)c2c(-c2ccccc2)c1C#N | 5.47 µg/mL (≈ 20.6 µM)
> 32 µg/mL | > 32 µg/mL | > 32 µg/mL | > 32 µg/mL | > 32 µg/mL | > 32 µg/mL | > 32 µg/mL | CCOC(=O)c1cc2cc(OCCCC3CCN(Cc4ccccc4)CC3)ccc2[nH]1.Cl | 16.5 µg/mL
> 32 µg/mL | > 32 µg/mL | > 32 µg/mL | > 32 µg/mL | > 32 µg/mL | > 32 µg/mL | 32 µg/mL (≈ 154 µM) | COc1ccc(CCl)c2cccnc12 | > 32 µg/mL
> 32 µg/mL | > 32 µg/mL | > 32 µg/mL | > 32 µg/mL | > 32 µg/mL | > 32 µg/mL | 32 µg/mL (≈ 102 µM) | CC1=C(C(=O)OC(C)(C)C)C(c2ccccc2)C(C#N)=C(N)O1 (stereo not given) | > 32 µg/mL

The next lines start with the compound.

SMILES | MIC (Cryptococcus neoformans) | MIC (Staphylococcus aureus) | MIC (Escherichia coli) | MIC (Klebsiella pneumoniae) | MIC (Pseudomonas aeruginosa) | MIC (Acinetobacter baumannii) | MIC (Candida albicans) | CC50 (HEK293)
Oc1ccc(CCl)c2cccnc12 | 16 µg/mL (≈ 82.6 µM) | > 32 µg/mL | > 32 µg/mL | > 32 µg/mL | 32 µg/mL (≈ 165 µM) | > 32 µg/mL | > 32 µg/mL | 5.81 µg/mL (≈ 30 µM)
N#Cc1c(NCCC2CCN(Cc3ccccc3)CC2)nc(NCCC2CCN(Cc3ccccc3)CC2)c(C#N)c1-c1ccccc1 | > 32 µg/mL | > 32 µg/mL | > 32 µg/mL | > 32 µg/mL | > 32 µg/mL | > 32 µg/mL | > 32 µg/mL | > 32 µg/mL
CCOC(=O)C(=Cc1ccccc1)C(C)=O | 8 µg/mL (≈ 36.7 µM) | > 32 µg/mL | > 32 µg/mL | > 32 µg/mL | > 32 µg/mL | > 32 µg/mL | 16 µg/mL (≈ 73.3 µM) | 13.5 µg/mL (≈ 61.9 µM)
CCOC(=O)c1c(C)nc(NCCCCC2CCN(Cc3ccccc3)CC2)c(C#N)c1-c1ccccc1 | > 32 µg/mL | > 32 µg/mL | > 32 µg/mL | > 32 µg/mL | > 32 µg/mL | > 32 µg/mL | > 32 µg/mL | 18.8 µg/mL (≈ 36.8 µM)
